In patent US9587005B2 (priority 2010, dated 2017):
*1 amine or outer side, *2 acyl side, *3 side chain or, on linkers, in order; H or OH if unused. Where a SMILES comes first, the peptide text is derived from it. Where no end group is shown, it is not given here. Side-chain parts run from the residue outwards. [ ]: non-standard residue; d: D form. The star is where a group is joined. γGlu = O=C(O)[C@H](CCC(=O)[*:2])N[*:1]; Palmitoyl = CCCCCCCCCCCCCCCC(=O)*; Aib = CC(C)(N)C(=O)O

Tests used:
GLP-1 receptor = molecular target: T1, GLP-1 receptor (Homo sapiens, UniProt P43220); experiment: cAMP induction, firefly luciferase reporter assay in HEK293 cells co-transfected with GLP-1 receptor; type: cell-based
T1 construct: expressed in transfected cells; host or cells: HEK293
T1 sequence (P43220 24-463): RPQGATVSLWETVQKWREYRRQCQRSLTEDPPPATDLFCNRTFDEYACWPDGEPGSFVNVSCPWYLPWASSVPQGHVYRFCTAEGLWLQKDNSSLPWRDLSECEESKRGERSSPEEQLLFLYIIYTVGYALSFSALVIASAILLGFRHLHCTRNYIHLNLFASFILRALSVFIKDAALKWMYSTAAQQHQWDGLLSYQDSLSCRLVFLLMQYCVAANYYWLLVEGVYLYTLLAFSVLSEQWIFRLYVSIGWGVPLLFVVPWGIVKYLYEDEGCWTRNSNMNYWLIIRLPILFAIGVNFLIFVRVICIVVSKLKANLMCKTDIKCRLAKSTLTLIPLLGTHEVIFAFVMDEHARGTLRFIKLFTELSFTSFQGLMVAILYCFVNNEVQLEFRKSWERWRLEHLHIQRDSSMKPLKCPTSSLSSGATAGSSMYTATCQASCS
From the text: This example describes an exemplary method of testing the biological activity of the peptides of the present disclosures, which method involves assaying cAMP synthesis.

GIP receptor = molecular target: T2, GIP receptor (Homo sapiens, UniProt P48546); experiment: cAMP induction, firefly luciferase reporter assay in HEK293 cells co-transfected with GIP receptor; type: cell-based
T2 sequence (P48546 22-466): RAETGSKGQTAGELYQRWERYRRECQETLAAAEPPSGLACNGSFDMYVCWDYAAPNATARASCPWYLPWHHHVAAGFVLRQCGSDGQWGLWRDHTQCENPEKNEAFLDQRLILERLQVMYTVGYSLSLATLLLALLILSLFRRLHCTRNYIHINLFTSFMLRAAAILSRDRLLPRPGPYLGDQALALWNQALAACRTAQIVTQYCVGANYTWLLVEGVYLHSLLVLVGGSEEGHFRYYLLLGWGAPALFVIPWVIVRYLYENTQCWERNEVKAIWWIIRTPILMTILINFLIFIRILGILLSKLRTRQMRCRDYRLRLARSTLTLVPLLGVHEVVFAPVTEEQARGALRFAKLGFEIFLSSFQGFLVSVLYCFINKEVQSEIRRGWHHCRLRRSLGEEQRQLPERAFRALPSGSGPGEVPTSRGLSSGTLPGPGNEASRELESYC

[1] = EC50 (nM) at GLP-1 Receptor, Table 9, Example 15
[2] = EC50 (nM) at GIP Receptor, Table 9, Example 15

For `CCCCCCCCCCCCCCCCC(CC(=O)NCCC(=O)NCCCC[C@H](NC(=O)[C@H](CO)NC(=O)[C@@H]1CCCN1C(=O)[C@@H]1CCCN1C(=O)[C@@H]1CCCN1C(=O)[C@H](C)NC(=O)CNC(=O)[C@H](CO)NC(=O)[C@H](CO)NC(=O)[C@@H]1CCCN1C(=O)CNC(=O)CNC(=O)[C@H](C)NC(=O)[C@H](CC(C)C)NC(=O)[C@H](CC(C)C)NC(=O)[C@H](Cc1c[nH]c2ccccc12)NC(=O)[C@H](CC(N)=O)NC(=O)[C@@H](NC(=O)[C@H](Cc1ccccc1)NC(=O)[C@H](CCC(=O)O)NC(=O)C(C)(C)NC(=O)[C@H](C)NC(=O)[C@H](C)NC(=O)[C@H](CCC(N)=O)NC(=O)[C@H](CCCCN)NC(=O)[C@H](CC(=O)O)NC(=O)[C@H](CC(C)C)NC(=O)[C@H](Cc1ccc(O)cc1)NC(=O)[C@@H](NC(=O)[C@H](CO)NC(=O)[C@H](Cc1ccc(O)cc1)NC(=O)[C@H](CC(=O)O)NC(=O)[C@H](CO)NC(=O)[C@@H](NC(=O)[C@H](Cc1ccccc1)NC(=O)[C@@H](NC(=O)CNC(=O)[C@H](CCC(=O)O)NC(=O)C(C)(C)NC(=O)[C@@H](N)Cc1ccc(O)cc1)[C@@H](C)O)[C@@H](C)O)[C@@H](C)CC)C(C)C)C(=O)NCC(N)=O)C(=O)O` (stereo partly shown) [SEQ ID NO: 141], the EC50 (GLP-1 receptor; [1]) was 0.001 nM and the EC50 (GIP receptor; [2]) was 0.002 nM.

`CCCCCCCCCCCCCCCC(=O)NCCCC[C@H](NC(=O)[C@H](CO)NC(=O)[C@@H]1CCCN1C(=O)[C@@H]1CCCN1C(=O)[C@@H]1CCCN1C(=O)[C@H](C)NC(=O)CNC(=O)[C@H](CO)NC(=O)[C@H](CO)NC(=O)[C@@H]1CCCN1C(=O)CNC(=O)CNC(=O)[C@H](C)NC(=O)[C@H](CC(C)C)NC(=O)[C@H](CC(C)C)NC(=O)[C@H](Cc1c[nH]c2ccccc12)NC(=O)[C@H](CC(N)=O)NC(=O)[C@@H](NC(=O)[C@H](Cc1ccccc1)NC(=O)[C@H](CCC(=O)O)NC(=O)C(C)(C)NC(=O)[C@H](C)NC(=O)[C@H](C)NC(=O)[C@H](CCC(N)=O)NC(=O)[C@H](CCCCN)NC(=O)[C@H](CC(=O)O)NC(=O)[C@H](CC(C)C)NC(=O)[C@H](Cc1ccc(O)cc1)NC(=O)[C@@H](NC(=O)[C@H](CO)NC(=O)[C@H](Cc1ccc(O)cc1)NC(=O)[C@H](CC(=O)O)NC(=O)[C@H](CO)NC(=O)[C@@H](NC(=O)[C@H](Cc1ccccc1)NC(=O)[C@@H](NC(=O)CNC(=O)[C@H](CCC(=O)O)NC(=O)C(C)(C)NC(=O)[C@@H](N)Cc1ccc(O)cc1)[C@@H](C)O)[C@@H](C)O)[C@@H](C)CC)C(C)C)C(=O)NCC(N)=O` [SEQ ID NO: 139] was tested, and the EC50 (GLP-1 receptor; [1]) was 0.005 nM and the EC50 (GIP receptor; [2]) was 0.001 nM.

`CCCCCCCCCCCCCCCC(=O)N[C@@H](CCC(=O)N[C@@H](CCC(=O)NCCCC[C@H](NC(=O)[C@H](CC(=O)O)NC(=O)[C@H](CO)NC(=O)[C@@H](NC(=O)[C@H](Cc1ccccc1)NC(=O)[C@@H](NC(=O)CNC(=O)[C@H](CCC(N)=O)NC(=O)C(C)(C)NC(=O)[C@@H](N)Cc1ccc(O)cc1)[C@@H](C)O)[C@@H](C)O)C(=O)N[C@@H](CO)C(=O)N[C@H](C(=O)N[C@@H](Cc1ccc(O)cc1)C(=O)N[C@@H](CC(C)C)C(=O)N[C@@H](CC(=O)O)C(=O)N[C@@H](CCCCN)C(=O)N[C@@H](CCC(N)=O)C(=O)N[C@@H](C)C(=O)N[C@@H](C)C(=O)NC(C)(C)C(=O)N[C@@H](CCC(=O)O)C(=O)N[C@@H](Cc1ccccc1)C(=O)N[C@H](C(=O)N[C@@H](CC(N)=O)C(=O)N[C@@H](Cc1c[nH]c2ccccc12)C(=O)N[C@@H](CC(C)C)C(=O)N[C@@H](CC(C)C)C(=O)N[C@@H](CC(=O)O)C(=O)N[C@H](C(N)=O)[C@@H](C)O)C(C)C)[C@@H](C)CC)C(=O)O)C(=O)O` [compound 92] (H-Y[Aib]QGTFTSDK([γGlu-γGlu-Palmitoyl])SIYLDKQAA[Aib]EFVNWLLDT-NH2; N-terminus assumed) was tested, and the EC50 (GLP-1 receptor; EC50 (nM) at GLP-1 Receptor, Table 7, Example 13) was 0.0031 nM and the EC50 (GIP receptor; EC50 (nM) at GIP Receptor, Table 7, Example 13) was 0.021 nM.

Compound `CCCCCCCCCCCCCCCCC(CC(=O)NCCCC[C@H](NC(=O)[C@H](CO)NC(=O)[C@@H]1CCCN1C(=O)[C@@H]1CCCN1C(=O)[C@@H]1CCCN1C(=O)[C@H](C)NC(=O)CNC(=O)[C@H](CO)NC(=O)[C@H](CO)NC(=O)[C@@H]1CCCN1C(=O)CNC(=O)CNC(=O)[C@H](C)NC(=O)[C@H](CC(C)C)NC(=O)[C@H](CC(C)C)NC(=O)[C@H](Cc1c[nH]c2ccccc12)NC(=O)[C@H](CC(N)=O)NC(=O)[C@@H](NC(=O)[C@H](Cc1ccccc1)NC(=O)[C@H](CCC(=O)O)NC(=O)C(C)(C)NC(=O)[C@H](C)NC(=O)[C@H](C)NC(=O)[C@H](CCC(N)=O)NC(=O)[C@H](CCCCN)NC(=O)[C@H](CC(=O)O)NC(=O)[C@H](CC(C)C)NC(=O)[C@H](Cc1ccc(O)cc1)NC(=O)[C@@H](NC(=O)[C@H](CO)NC(=O)[C@H](Cc1ccc(O)cc1)NC(=O)[C@H](CC(=O)O)NC(=O)[C@H](CO)NC(=O)[C@@H](NC(=O)[C@H](Cc1ccccc1)NC(=O)[C@@H](NC(=O)CNC(=O)[C@H](CCC(=O)O)NC(=O)C(C)(C)NC(=O)[C@@H](N)Cc1ccc(O)cc1)[C@@H](C)O)[C@@H](C)O)[C@@H](C)CC)C(C)C)C(=O)NCC(N)=O)C(=O)O` (stereo partly shown) [SEQ ID NO: 140] has an EC50 (GLP-1 receptor; [1]) of 0.001 nM and an EC50 (GIP receptor; [2]) of 0.001 nM.

Work on “H[Aib]EGTFTSDYSKYLDERAAQDFVQWLLDGGPSSGAPPPSK([γGlu-γGlu-Palmitoyl])G-NH2 [SEQ ID NO: 171]” yielded an EC50 (GLP-1 receptor; EC50 (nM) at GLP-1 receptor, Table 15, Example 23) of 0.005 nM and an EC50 (GIP receptor; EC50 (nM) at GIP receptor, Table 15, Example 23) of 0.038 nM.

Compound `CCCCCCCCCCCCCCCC(=O)N[C@@H](CCC(=O)NCCCC[C@H](NC(=O)[C@H](CC(=O)O)NC(=O)[C@H](CO)NC(=O)[C@@H](NC(=O)[C@H](Cc1ccccc1)NC(=O)[C@@H](NC(=O)CNC(=O)[C@H](CCC(=O)O)NC(=O)C(C)(C)NC(=O)[C@@H](N)Cc1c[nH]cn1)[C@@H](C)O)[C@@H](C)O)C(=O)N[C@@H](CO)C(=O)N[C@@H](CCCCN)C(=O)N[C@@H](Cc1ccc(O)cc1)C(=O)N[C@@H](CC(C)C)C(=O)N[C@@H](CC(=O)O)C(=O)N[C@@H](CCC(=O)O)C(=O)N[C@@H](CCCNC(=N)N)C(=O)N[C@@H](CCCNC(=N)N)C(=O)N[C@@H](C)C(=O)NC(C)(C)C(=O)N[C@@H](CC(=O)O)C(=O)N[C@@H](Cc1ccccc1)C(=O)N[C@H](C(=O)N[C@@H](CCC(N)=O)C(=O)N[C@@H](Cc1c[nH]c2ccccc12)C(=O)N[C@@H](CC(C)C)C(=O)N[C@@H](CC(C)C)C(=O)N[C@@H](CC(=O)O)C(=O)NCC(=O)NCC(=O)N1CCC[C@H]1C(=O)N[C@@H](CO)C(=O)N[C@@H](CO)C(=O)NCC(=O)N[C@@H](C)C(=O)N1CCC[C@H]1C(=O)N1CCC[C@H]1C(=O)N1CCC[C@H]1C(=O)N[C@@H](CO)C(N)=O)C(C)C)C(=O)O` [compound 41] (H-H[Aib]EGTFTSDK([γGlu-Palmitoyl])SKYLDERRA[Aib]DFVQWLLDGGPSSGAPPPS-NH2) has an EC50 (GLP-1 receptor; EC50 (nM) at GLP-1 Receptor, Table 4, Example 9, composite of multiple different activity assays) of 0.006 nM and an EC50 (GIP receptor; EC50 (nM) at GIP Receptor, Table 4, Example 9, composite of multiple different activity assays) of 0.013 nM.

For `CCCCCCCCCCCCCCCC(=O)N[C@@H](CCC(=O)NCCCC[C@H](NC(=O)[C@H](CC(=O)O)NC(=O)[C@H](CO)NC(=O)[C@@H](NC(=O)[C@H](Cc1ccccc1)NC(=O)[C@@H](NC(=O)CNC(=O)[C@H](CCC(N)=O)NC(=O)C(C)(C)NC(=O)[C@@H](N)Cc1c[nH]cn1)[C@@H](C)O)[C@@H](C)O)C(=O)N[C@@H](CO)C(=O)N[C@@H](CCCCN)C(=O)N[C@@H](Cc1ccc(O)cc1)C(=O)N[C@@H](CC(C)C)C(=O)N[C@@H](CC(=O)O)C(=O)N[C@@H](CCC(=O)O)C(=O)N[C@@H](CCCNC(=N)N)C(=O)N[C@@H](CCCNC(=N)N)C(=O)N[C@@H](C)C(=O)NC(C)(C)C(=O)N[C@@H](CCC(=O)O)C(=O)N[C@@H](Cc1ccccc1)C(=O)N[C@H](C(=O)N[C@@H](CCC(N)=O)C(=O)N[C@@H](Cc1c[nH]c2ccccc12)C(=O)N[C@@H](CC(C)C)C(=O)N[C@@H](CC(C)C)C(=O)N[C@@H](CC(=O)O)C(=O)NCC(=O)NCC(=O)N1CCC[C@H]1C(=O)N[C@@H](CO)C(=O)N[C@@H](CO)C(=O)NCC(=O)N[C@@H](C)C(=O)N1CCC[C@H]1C(=O)N1CCC[C@H]1C(=O)N1CCC[C@H]1C(=O)N[C@@H](CO)C(N)=O)C(C)C)C(=O)O` [SEQ ID NO: 37] (H-H[Aib]QGTFTSDK([γGlu-Palmitoyl])SKYLDERRA[Aib]EFVQWLLDGGPSSGAPPPS-NH2; N-terminus assumed), the EC50 (GIP receptor; GIP (0.01), Table 8, Example 14, activity at the GIP receptor) was 0.003 nM.
